From patent publication US20240285594A1, “COMPOSITIONS AND METHODS FOR TREATING PAIN IN ANIMALS” (North Carolina State University, priority 2023, published 2024)
“Also recorded” adds a separate entry of the source. Read-outs that look alike come from different tables or passages of the source.

Assays:
[1] = UPAPS behavioral pain scoring and rescue analgesia after castration (Part II); assay type: in vivo, piglets; details: -1 h, 0 h and +3 h relative to castration; compared to C (saline); listed as FM
Description: Behavior scoring was obtained in real-time by observing each piglet for 4-min continuously using Unesp-Botucatu pig acute pain scale (UPAPS). Each piglet was scored by one trained observer at the following timepoints: 1 h before castration (−1 h), immediately post-castration (0 h), and 3 h post-castration (+3 h, FIG. 3). The 4-min sampling time was obtained from the methodology previously validated. Treatments were masked, randomized, and applied to each piglet by a senior researcher. The Unesp-Botucatu UPAPS scale evaluates five behavioral items, with each item divided into four descriptive levels. A numerical score was designated from “0” to “3”, with a “0” representing normal behavior (free of pain) and “3” corresponding to pronounced behavioral deviation (severe pain). Therefore, for each timepoint, piglets may receive a score ranging from 0 (min) to 15 (max; Table 3). Total pain scores were then calculated for each piglet per timepoint. […] This is most referred to rescue analgesia in the literature; and was conducted for each behavioral assessment. Total counts were calculated for piglets identified as requiring or not requiring rescue analgesia by treatment and timepoint. […]

prostaglandin E2 (PGE2) = assay: Serum PGE2 after castration of piglets (Example 3); assay type: in vivo
Description: Pairwise comparisons of treatments at −24 h: P≥0.77. […] Pairwise comparisons of treatments at 24 h post-castration: P≥0.11.
The objective of this study was to evaluate the effects of intranasal flunixin and intra-inguinal lidocaine application on the castration associated inflammatory response in piglets, as described in Example 1.

[2] = Pilot pharmacokinetic study of intranasal flunixin, three catheter sites; assay type: in vivo; details: female, Yorkshire cross, plasma, inhaled or intranasal, 3.0 mg/kg IN, one grower pig; for AUC / Cmax: pig, 3 mg/kg; for AUC: read-out: area under the curve (AUC) (converted); for Cmax: read-out: peak concentration (Cmax)
Excerpt: A pilot study in one animal was initially performed to compare jugular venous drug concentrations to those of other sites (femoral artery and auricular artery), as there was concern that drainage of the nasal sinus would produce higher concentrations of flunixin in the blood collected from the jugular vein.
The pilot study involved one female Yorkshire cross grower pig sourced from a production farm weighing 25.3 kg. The pig was sedated with IM Telazol®, ketamine, and xylazine (TKX). The Telazol® was reconstituted with ketamine (250 mg; 2.5 mL) and xylazine (250 mg; 2.5 mL; Dechra Veterinary Products, Overland Park, KS, USA) and administered IM at a dose of 0.03 mL/kg (1.5 mg/kg) for each medication before being intubated and maintained on isoflurane anesthesia. A femoral arterial catheter, jugular venous catheter, and auricular arterial catheter were placed using sterile technique. […] A higher dose than the label dose was chosen to ensure that the drug would be detectable since this study's purpose was to determine an appropriate catheter site. Using an intranasal mucosal atomization device (MAD) (Teleflex, Morrisville, NC, USA) with 1 mL luer lock syringe, each nostril was infused with 0.75 mL (37.5 mg) of flunixin to administer a total of 1.5 mL (75 mg). Plasma samples were collected from each catheter site at pre-treatment (blank), 0.08, 0.25, 0.5, 0.85, 1, 1.5, 2, 2.5, and 3 hours post-treatment and analyzed using ultra performance liquid chromatography and tandem mass spectrometry (UPLC-MS/MS) to determine flunixin concentrations. A non-compartmental pharmacokinetic analysis was then performed.

[3] = Plasma and interstitial fluid concentrations after intravenous or intranasal flunixin meglumine in cattle; assay type: in vivo
Description: FIG. 10: Plasma concentration versus time curve for individual cattle (n=4) following a single intravenous dose of flunixin meglumine at 2.2 mg/kg. Samples were simultaneously collected from the opposite jugular vein (via pre-placed catheter) and a pre-placed portal vein catheter. Some variability is observed between sampling sites (jugular vs. portal vein) but overall concentrations and trend are similar over time.
FIG. 11: Plasma concentration versus time curve for individual cattle (n=4) following a single intranasal dose of flunixin meglumine at 2.2 mg/kg. Samples were simultaneously collected from a jugular vein catheter and a pre-placed portal vein catheter. Overall, plasma concentrations are lower following intranasal administration, and the jugular sampling site overestimates systemic concentrations especially following the first 1 hour after administration.
FIG. 12: Interstitial fluid concentration versus time curve for individual cattle (n=4) following a single intranasal (n=2) or intravenous (n=2) dose of flunixin meglumine at 2.2 mg/kg. Samples were collected using an in vivo ultrafiltration collection device and represent tissue unbound concentrations of flunixin. There is systemic absorption following both intravenous and intranasal routes of administration, with tissue concentrations of flunixin detected for at least 24 hours following a single dose.

Cc1c(Nc2ncccc2C(=O)O)cccc1C(F)(F)F [flunixin meglumine]
total UPAPS scores [1]: did not decrease; also recorded: behavioral differences were not noted | serum PGE2 concentrations (prostaglandin E2 (PGE2); 1 h post-castration, castrated and non-castrated piglets, flunixin 2.2 mg/kg IN vs piglets without the drug): lower serum PGE2 concentrations; also recorded: effective | serum PGE2 concentrations (prostaglandin E2 (PGE2); 24 h post castration, vs other treatments): no observed differences; also recorded: not effective | AUC ([2]; auricular artery): 12800 ng·h/mL | Cmax ([2]; auricular artery): 6000 ng/mL | AUC ([2]; femoral artery): 12300 ng·h/mL | Cmax ([2]; femoral artery): 5170 ng/mL | AUC ([2]; jugular vein): 12800 ng·h/mL | Cmax ([2]; jugular vein): 6820 ng/mL | Tmax ([2]; all catheter sites, read-out: time to peak concentration (Tmax)): 15 min | plasma concentrations ([3]; cattle (n=4), single intranasal dose 2.2 mg/kg, compared with intravenous): lower | time tissue (interstitial fluid, unbound) concentrations were detected ([3]; cattle, single intranasal or intravenous dose 2.2 mg/kg): at least 24 hours
